Read-outs that look alike come from different tables or passages of the source.
Assays:
[1] = test system: JURKAT (human T-cell line); experiment: Secondary assay: cell proliferation WST-1, Jurkat; assay type: cell-based; details: Jurkat cells, 48 hours, read-out: Cell Proliferation Inhibition WST-1 (IC50 unless otherwise specified) Jurkat
Experimental: (§1) Compounds with HDAC inhibition activity, as determined using the primary assay, were subsequently evaluated using secondary cell-based assays. […] Assay Method
(§2) Cells were plated in 96-well plates at 3-10×10^3 cells/well in 100 μL of culture medium. The following day, different concentrations of candidate compounds were added and the cells incubated at 37° C. for 48 hours. Subsequently, 10 μL/well of WST-1 reagent was added and the cells reincubated for 1 hour. After the incubation time, absorbance was measured.
(§3) WST-1 is a tetrazolium salt which is cleaved to formazan dye by cellular enzymes. An expansion in the number of viable cells results in an increase in the overall activity of mitochondrial dehydrogenases in the sample. This augmentation in the enzyme activity leads to an increase in the amount of formazan dye formed, which directly correlates to the number of metabolically active cells in the culture. The formazan dye produced is quantified by a scanning multiwell spectrophotometer by measuring the absorbance of the dye solution at 450 nm wavelength (reference wavelength 690 nm).
Percent activity (% activity) in reducing the number of viable cells was calculated for each test compound as: % activity={(S^C−B)/(S^o−B)}×100 wherein S^C denotes signal measured in the presence of the compound being tested, S^o denotes signal measured in the absence of the compound being tested, and B denotes the background signal measured in blank wells containing medium only. […] IC50 values were calculated using the software package Prism 3.0 (GraphPad Software Inc., San Diego, Calif.), setting top value at 100 and bottom value at 0.

[2] = test system: NHEK-Ad (primary human adult keratinocyte line); experiment: Secondary assay: cell proliferation WST-1, NHEK-Ad; assay type: cell-based; details: read-out: Cell Proliferation Inhibition WST-1 (IC50 unless otherwise specified) NHEK-AD
Experimental: as §1, §2, §3
(§4) IC50 values were calculated using the software package Prism 3.0 (GraphPad Software Inc., San Diego, Calif.), setting top value at 100 and bottom value at 0.

[3] = test system: K11 (HPV E7 transformed human keratinocyte line); experiment: Secondary assay: cell proliferation WST-1, K11; assay type: cell-based; details: read-out: Cell Proliferation Inhibition WST-1 (IC50 unless otherwise specified) K11
Experimental: as §1, §2, §3, §4

HDAC (HeLa cell extract) = experiment: Primary assay: deacetylase activity, HeLa cell extract as source of HDAC; assay type: biochemical, human; details: read-out: HDAC Inhibition (IC50 unless otherwise specified) HeLa
Experimental: Decreased activity indicates increased inhibition by the test compound.
Alternatively, the activity of the compounds as HDAC inhibitors was determined using a commercially available fluorescent assay kit: (Fluor de Lys™, BioMol Research Labs, Inc., Plymouth Meeting, USA).
Extensive comparative studies have shown that Primary Assay (1) and Primary Assay (2), discussed above, yield equivalent results. Primary Assay results reported herein are (a) exclusively from (1); (b) exclusively from (2); or (c) from both (1) and (2).
The HeLa cell extract was made from HeLa cells (ATCC Ref. No. CCL-2) by freeze-thawing three times in 60 mM Tris Cl pH 8.0, 450 mM NaCl, 30% glycerol. Two cell volumes of extraction buffer were used, and particulate material was centrifuged out (20800 g, 4° C., 10 minutes). The supernatant extract having deacetylase activity was aliquotted and frozen for storage.

HeLa cells = experiment: Secondary assay: cell proliferation WST-1, HeLa; assay type: cell-based; details: Homo sapiens, read-out: Cell Proliferation Inhibition WST-1 (IC50 unless otherwise specified) HeLa
Excerpt: Compounds with HDAC inhibition activity, as determined using the primary assay, were subsequently evaluated using secondary cell-based assays. The following cell lines were used: • HeLa—Human cervical adenocarcinoma cell line (ATCC ref. No. CCL-2). • K11—HPV E7 transformed human keratinocyte line provided by Pidder Jansen-Duerr, Institut für Biomedizinische Alternsforschung, Innsbruck, Austria. • NHEK-Ad—Primary human adult keratinocyte line (Cambrex Corp., East Rutherford, N.J., USA). • JURKAT—Human T-cell line (ATCC no. TIB-152). Assay Method
Cells were cultured, exposed to candidate compounds, and incubated for a time, and the number of viable cells was then assessed using the Cell Proliferation Reagent WST-1 from Boehringer Mannheim (Cat. No. […]), described below.
as §2, §3, §4

[4] = Homo sapiens, Keratinocyte, K11 cells, 48 hours
[5] = Homo sapiens, Keratinocyte, 48 h

Compound: Nc1ccccc1NC(=O)c1ccc(CNC(=O)OCc2cccnc2)cc1 [MS-275, reference compound]
- IC50 [1]: 365 nM
- IC50 ([2]; NHEK-AD cells, 48 hours): 3100 nM
- IC50 ([3]; K11 cells, 48 hours): 9.16 µM

Compound: COc1ccc(C2(C(=O)Oc3ccc(C(=O)NO)cc3)CCCCC2)cc1 [PX118478, 4-[(Hydroxyamino)carbonyl]phenyl 1-(4-methoxyphenyl)-cyclohexanecarboxylate]
- IC50 ([1]; Homo sapiens): 500 nM
- melting point: 127 to 129 °C
- IC50 (HDAC (HeLa cell extract)): 23 nM
- IC50 (HeLa cells; HeLa cells, 48 hours): 4.6 µM
- IC50 [3, 4]: 13.6 µM

Compound: O=C(NO)c1ccc(OC(=O)C2(c3ccccc3)CCCCC2)cc1 [PX118479, 4-[(Hydroxyamino)carbonyl]phenyl 1-phenylcyclohexanecarboxylate]
- IC50 ([1]; Homo sapiens): 1250 nM
- melting point: 142 to 144 °C
- IC50 (HDAC (HeLa cell extract)): 52 nM
- IC50 (HeLa cells; HeLa cells, 48 hours): 13.7 µM
- IC50 [3, 4]: 21.3 µM

Compound: COC(=O)c1ccc(C2(C(=O)Oc3ccc(C(=O)NO)cc3)CCCCC2)cc1 [PX118480, Methyl 4-[1-({4-[(hydroxyamino)carbonyl]phenoxy}carbonyl) -cyclohexyl]benzoate]
- IC50 ([1]; Homo sapiens): 780 nM
- melting point: 129 to 131 °C
- IC50 (HDAC (HeLa cell extract)): 25 nM
- IC50 (HeLa cells; HeLa cells, 48 hours): 7.9 µM
- IC50 [3, 4]: 1.65 µM

Compound: CCOc1ccc(C2(C(=O)Oc3ccc(C(=O)NO)cc3)CCCCC2)cc1 [PX118925, 4-[(Hydroxyamino)carbonyl]phenyl 1-(4-ethoxyphenyl) -cyclohexanecarboxylate]
- melting point: 140 to 143 °C

Compound: CC(C)(C)OC(=O)c1ccc(C2(C(=O)Oc3ccc(C(=O)NO)cc3)CCCCC2)cc1 [PX118926, tert-Butyl 4-[1-({4-[(hydroxyamino)carbonyl]phenoxy}-carbonyl)cyclohexyl]benzoate]
- melting point: 143 to 147 °C (dec.)

Compound: CC(=O)Oc1ccc(C2(C(=O)Oc3ccc(C(=O)NO)cc3)CCCCC2)cc1 [PX118959, 4-[(Hydroxyamino)carbonyl]phenyl 1-[4-(acetyloxy)phenyl]-cyclohexanecarboxylate]
- melting point: 69 °C

Compound: Cc1ccc(C2(C(=O)Oc3ccc(C(=O)NO)cc3)CCCCC2)cc1 [PX118966, 4-[(Hydroxyamino)carbonyl]phenyl 1-(4-methylphenyl) -cyclohexanecarboxylate]
- melting point: 59 to 60 °C

Compound: O=C(NO)c1ccc(OC(=O)C2(c3ccc(Cl)cc3)CCCCC2)cc1 [PX119059, 4-[(Hydroxyamino)carbonyl]phenyl 1-(4-chlorophenyl) -cyclohexanecarboxylate]
- melting point: 145 to 146 °C

Compound: O=C(NO)c1ccc(OC(=O)C2(c3cccc(F)c3)CCCCC2)cc1 [PX119061, 4-[(Hydroxyamino)carbonyl]phenyl 1-(3-fluorophenyl) -cyclohexanecarboxylate]
- melting point: 150 to 151 °C

Compound: O=C(NO)c1ccc(OC(=O)C2(c3ccccc3F)CCCCC2)cc1 [PX119062, 4-[(Hydroxyamino)carbonyl]phenyl 1-(2-fluorophenyl) -cyclohexanecarboxylate]
- melting point: 125 to 126 °C

Compound: COc1ccc(C2(C(=O)Oc3ccc(C(=O)NO)cc3)CCCC2)cc1 [PX119063, 4-[(Hydroxyamino)carbonyl]phenyl 1-(4-methoxyphenyl) -cyclopentanecarboxylate]
- melting point: 143 to 144 °C
- IC50 (HDAC (HeLa cell extract)): 85 nM
- IC50 (HeLa cells; HeLa cells, 48 hours): 4.9 µM

Compound: O=C(NO)c1ccc(OC(=O)C2(c3ccc(F)cc3Cl)CCCCC2)cc1 [PX119064, 4-[(Hydroxyamino)carbonyl]phenyl 1-(2-chloro-4-fluorophenyl) -cyclohexanecarboxylate]
- melting point: 164 to 165 °C

Compound: O=C(NO)c1ccc(OC(=O)C2(c3ccc(F)cc3)CCCCC2)cc1 [PX119065, 4-[(Hydroxyamino)carbonyl]phenyl 1-(4-fluorophenyl) -cyclohexanecarboxylate]
- melting point: 150 to 151 °C

Compound: O=C(NO)c1ccc(OC(=O)C2(c3ccc(OC(=O)c4ccccc4)cc3)CCCCC2)cc1 [PX119085, 4-[1-({4-[(Hydroxyamino)carbonyl]phenoxy}carbonyl)cyclohexyl]-phenyl benzoate]
- melting point: 114 to 115 °C

Compound: CC(C)(C)C(=O)Oc1ccc(C2(C(=O)Oc3ccc(C(=O)NO)cc3)CCCCC2)cc1 [PX119086, 4-[(Hydroxyamino)carbonyl]phenyl 1-{4-[(2,2-dimethylpropanoyl)oxy]-phenyl}-cyclohexane-carboxylate]
- melting point: 124 to 125 °C

Compound: O=C(NO)c1ccc(OC(=O)C2(c3c(F)cccc3Cl)CCCCC2)cc1 [PX119101, 4-[(Hydroxyamino)carbonyl]phenyl 1-(2-chloro-6-fluorophenyl) -cyclohexanecarboxylate]
- melting point: 101 to 102 °C

Compound: O=C(O)c1ccc(C2(C(=O)Oc3ccc(C(=O)NO)cc3)CCCCC2)cc1 [PX119102, 4-[1-({4-[(Hydroxyamino)carbonyl]phenoxy}carbonyl)cyclohexyl]-benzoic acid]
- melting point: 169 to 170 °C

Compound: O=C(NO)c1ccc(OC(=O)C2(c3ccc(O)cc3)CCCCC2)cc1 [PX119103, 4-[(Hydroxyamino)carbonyl]phenyl 1-(4-hydroxyphenyl) -cyclohexanecarboxylate]
- melting point: 93 to 94 °C

Compound: CC(/C=C/C(=O)NO)=C\[C@@H](C)C(=O)c1ccc(N(C)C)cc1 [TSA, Trichostatin A, reference compound]
- IC50 ([1]; Homo sapiens): 42 nM
- IC50 [2, 5]: 200 nM
- IC50 (HeLa cells; HeLa, 48 h): 0.35 µM
- IC50 [3, 5]: 0.38 µM

Compound: oxamflatin [reference compound]
- IC50 [1]: 170 nM
